Tests used:
Tankyrase 1 (TNKS1) = target: T1, Tankyrase 1 (TNKS1) (Homo sapiens, UniProt O95271); experiment: μHTS-TNKS-IWR2 TR-FRET Binding Assay (Example 71), TNKS1
T1 construct: His6-TNKS1, MW=28.2 KDa (construct: 1088-1327, 1266M)
Description: (§1) μHTS-TNKS-IWR2 TR-FRET Binding Assay (10 μL/well in BD1536-well plate, a single point)
(§2) Assay buffer 1a (AB1a) for TNKS dilution: 50 mM Tris, pH 7.4, 100 mM sodium chloride solution, 1 mM magnesium chloride solution, 1 mM DL-dithiothreitol solution, 0.2 mg/mL bovine serum albumin solution, 0.025% NP-40. Assay buffer 1b (AB 1b) for Biotin-IWR2 dilution: 50 mM Tris, pH 7.4, 100 mM sodium chloride solution, 1 mM magnesium chloride solution, 1 mM DL-dithiothreitol solution, 0.2 mg/mL bovine serum albumin solution, 0.05% NP-40 Assay buffer 1c (AB 1c) for compound dilution: 50 mM Tris, pH 7.4, 100 mM sodium chloride solution, 1 mM magnesium chloride solution, 1 mM DL-dithiothreitol solution, 0.2 mg/mL bovine serum albumin solution Assay buffer 2 (AB2) for Eu/APC: 50 mM Tris, pH 7.4, 100 mM sodium chloride solution, 1 mM magnesium chloride solution, 0.2 mg/mL bovine serum albumin solution
(§3) Transfer 3 μL/well of above solution (solution 1,2,3) to an empty assay plate (BD1536-well plate) as follows: TOTAL and cpd wells: Solution 1 (Biotin-IWR2): BLANK wells: Solution 2 (No Biotin-IWR2): POSITIVE CONTROL wells: Solution 3 (Biotin-IWR2XAV939) Transfer 3 μL/well of the above diluted compound solutions or compound dilution buffer to the above assay plate. Add 2 μL/well of 300 nM TNKS stock solution (4) to every well in the above assay plate. Centrifuge the assay plate at 2100 rpm for 2 min. Incubate the assay plate at 26° C. for 30 minutes. Add 2 μL/well 3.5 nMEu/50 nM APC solution (5) to every well in the above assay plate. Centrifuge the assay plate at 2100 rpm for 2 min. Incubate the assay plate at 26° C. for 60 min.

tankyrase 2 (His6-TNKS2) = target: T2, tankyrase 2 (His6-TNKS2) (Homo sapiens, UniProt Q9H2K2); experiment: μHTS-TNKS-IWR2 TR-FRET Binding Assay (Example 71), TNKS2; conditions: footnote 1: Tankyrase 1 and 2 inhibition assay in Example 71 (TR-FRET)
T2 construct: His6-tankyrase 2 (construct: 934-1166) (His6-TNKS2)
Description: as §1
Biotin-4-((1S,2R,6S,7R)-3,5-Dioxo-4-aza-tricyclo[5.2.1.0*2,6*]dec-8-en-4-yl)-N-(4-methyl-quinolin-8-yl)-benzamide (Biotin-IWR2): 10 mM Biotin-IWR2 stock in DMSO, stored at −20° C. Positive control: 10 mM 2-(4-Trifluoromethyl-phenyl)-3,5,7,8-tetrahydro-thiopyrano[4,3-d]pyrimidin-4-one (XAV939) in DMSO, stored at −20° C.
as §2, §3

[1] = target: T3, PARP1 (His6-PARP1, full length) (Homo sapiens, UniProt P09874); experiment: TR-FRET Binding Assay (Example 71), PARP1; conditions: TR-FRET assay of Example 71 with His6-PARP1
T3 construct: His6-PARP1 (full length) can be substituted for His6-TNKS 1
Description: as §1
Tankyrase 1 (TNKS1): 184.3 μM=5.2 mg/mL His6-TNKS1, MW=28.2 KDa (construct: 1088-1327, 1266M) in 20 mM Tris pH 8, 150 mM NaCl, 10% glycerol, and 0.5 mM TCEP. Alternatively, His6-tankyrase 2 (construct: 934-1166) (His6-TNKS2) or His6-PARP1 (full length) can be substituted for His6-TNKS 1.
as §2
Prepare Biotinylated IWR2 stock solution (3.33× stock) for TOTL and compound wells: 200 nM Biotin-IWR2 in 5% DMSO/AB1b buffer
Prepare BLANK well stock solution: 5% DMSO/AB1b buffer Prepare POSITIVE CONTROL well stock solution (3.33× stock): 200 nM XAV939 in 200 nM Biotin-IWR2/5% DMSO/AB1b buffer Prepare TNKS1 stock solution (5× stock): 300 nM TNKS in AB1a buffer. (Alternatively, use TNKS2 or PARP1 stock solutions.) Prepare Eu/APC stock solution (5× stock): 3.5 nM Eu-SA/50 nM APC-His6Ab in AB2 buffer.
Add 25 μL/well 1.5% DMSO/AB1c buffer in each compound well to the compound concentration at 74 μM in 8.8% DMSO/AB1c buffer or in the 2 μL DMSO CONTROL wells (BLANK, TOTAL and POSITIVE wells) in the compound plate. Transfer 3 μL/well of above solution (solution 1,2,3) to an empty assay plate (BD1536-well plate) as follows: TOTAL and cpd wells: Solution 1 (Biotin-IWR2): BLANK wells: Solution 2 (No Biotin-IWR2): POSITIVE CONTROL wells: Solution 3 (Biotin-IWR2XAV939) Transfer 3 μL/well of the above diluted compound solutions or compound dilution buffer to the above assay plate. Add 2 μL/well of 300 nM TNKS stock solution (4) to every well in the above assay plate. Centrifuge the assay plate at 2100 rpm for 2 min. Incubate the assay plate at 26° C. for 30 minutes. Add 2 μL/well 3.5 nMEu/50 nM APC solution (5) to every well in the above assay plate. Centrifuge the assay plate at 2100 rpm for 2 min. Incubate the assay plate at 26° C. for 60 min. Read the assay plate immediately at excitation wavelength of 330 nm and emission wavelength of […] in time resolved fluorescence mode.
. Representative compound data for the PARP1 assay is in TABLE 2 (below) Values are in μM.

T1 sequence (O95271 1088-1327): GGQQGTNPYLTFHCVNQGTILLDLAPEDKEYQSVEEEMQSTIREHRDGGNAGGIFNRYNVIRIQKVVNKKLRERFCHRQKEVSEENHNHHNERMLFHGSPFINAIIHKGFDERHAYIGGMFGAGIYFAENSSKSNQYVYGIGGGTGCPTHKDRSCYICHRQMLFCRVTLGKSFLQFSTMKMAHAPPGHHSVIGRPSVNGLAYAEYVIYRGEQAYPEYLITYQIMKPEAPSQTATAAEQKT
T3 sequence (P09874 whole entry, species assumed): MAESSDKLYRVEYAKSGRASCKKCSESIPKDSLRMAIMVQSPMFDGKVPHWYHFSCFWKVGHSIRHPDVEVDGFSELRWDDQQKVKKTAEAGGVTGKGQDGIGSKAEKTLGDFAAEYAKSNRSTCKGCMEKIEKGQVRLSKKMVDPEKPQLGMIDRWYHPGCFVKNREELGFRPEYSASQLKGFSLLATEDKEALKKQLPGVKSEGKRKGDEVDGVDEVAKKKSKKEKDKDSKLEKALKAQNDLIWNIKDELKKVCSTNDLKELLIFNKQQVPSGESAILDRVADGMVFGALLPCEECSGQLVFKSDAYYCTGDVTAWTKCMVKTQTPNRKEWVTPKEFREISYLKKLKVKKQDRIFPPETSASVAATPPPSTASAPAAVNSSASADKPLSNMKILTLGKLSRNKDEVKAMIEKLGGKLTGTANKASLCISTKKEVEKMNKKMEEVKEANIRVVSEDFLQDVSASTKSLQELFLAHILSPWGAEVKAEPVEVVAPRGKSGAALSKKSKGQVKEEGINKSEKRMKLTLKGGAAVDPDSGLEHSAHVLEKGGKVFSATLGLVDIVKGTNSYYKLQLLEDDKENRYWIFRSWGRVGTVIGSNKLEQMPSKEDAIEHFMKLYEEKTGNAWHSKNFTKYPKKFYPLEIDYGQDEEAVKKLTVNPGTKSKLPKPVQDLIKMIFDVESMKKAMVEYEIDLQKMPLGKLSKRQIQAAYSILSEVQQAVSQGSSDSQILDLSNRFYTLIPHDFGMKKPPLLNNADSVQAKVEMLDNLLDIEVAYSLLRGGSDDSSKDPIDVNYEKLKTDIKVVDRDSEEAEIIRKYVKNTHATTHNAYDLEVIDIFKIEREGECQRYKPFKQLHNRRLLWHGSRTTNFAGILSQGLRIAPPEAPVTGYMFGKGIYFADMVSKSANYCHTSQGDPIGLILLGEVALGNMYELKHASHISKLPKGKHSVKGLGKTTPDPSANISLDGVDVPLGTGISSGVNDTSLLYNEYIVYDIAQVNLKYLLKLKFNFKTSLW
T2 sequence (Q9H2K2 934-1166): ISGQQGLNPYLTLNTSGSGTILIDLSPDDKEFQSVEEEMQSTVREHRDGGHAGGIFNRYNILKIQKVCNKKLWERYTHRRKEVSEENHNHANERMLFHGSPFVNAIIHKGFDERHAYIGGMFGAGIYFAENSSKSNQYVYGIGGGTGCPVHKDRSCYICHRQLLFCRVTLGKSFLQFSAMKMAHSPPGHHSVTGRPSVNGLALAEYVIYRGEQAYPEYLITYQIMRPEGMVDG

SMILES	IC50 (Tankyrase 1 (TNKS1))	IC50 (tankyrase 2 (His6-TNKS2))	IC50 [1]
CC(C)(C)C1Cc2[nH]c(=O)c3cnccc3c2CO1 (racemic) [Compound I-43, rac-7-tert-Butyl-5,7,8,9-tetrahydro-6-oxa-2,9-diaza-phenanthren-10-one]	43.9 nM	49 nM	876 nM
CC(C)(C)C1Cc2[nH]c(=O)c3cccnc3c2CO1 (racemic) [Compound I-48, rac-2-tert-Butyl-1,2,4,10-tetrahydro-3-oxa-5,10-diaza-phenanthren-9-one]	34.6 nM	55.4 nM	437 nM
Cc1ccc2c(=O)[nH]c3c(c2n1)COC(C(C)(C)C)C3 (racemic) [Compound I-49, rac-2-tert-Butyl-6-methyl-1,2,4,10-tetrahydro-3-oxa-5,10-diaza-phenanthren-9-one]	514 nM	77.5 nM	3050 nM
CC(C)(O)c1ccc2c(=O)[nH]c3c(c2c1)COC(C(C)(C)C)C3 (racemic) [Compound I-53, rac-2-tert-Butyl-6-(1-hydroxy-1-methyl-ethyl)-1,2,4,10-tetrahydro-3-oxa-10-aza-phenanthren-9-one]	1100 nM	13900 nM	> 50000 nM
CC(C)(C)C1Cc2[nH]c(=O)c3ccc(C#N)cc3c2CO1 (racemic) [Compound I-56, rac-2-tert-Butyl-9-oxo-1,4,9,10-tetrahydro-2H-3-oxa-10-aza-phenanthrene-6-carbonitrile]	133 nM	1500 nM	> 50000 nM
CC1(C(=O)N2CCC(C3Cc4[nH]c(=O)c5cccnc5c4CO3)CC2)CC1 (racemic) [Compound I-57, rac-2-[1-(1-methyl-cyclopropanecarbonyl)-piperidin-4-yl]-1,2,4,10-tetrahydro-3-oxa-5,10-diaza-phenanthren-9-one]	40.2 nM	45.5 nM	38.6 nM
Cc1cncc2c(=O)[nH]c3c(c12)COC(C(C)(C)C)C3 (racemic) [Compound I-58, rac-7-tert-Butyl-4-methyl-5,7,8,9-tetrahydro-6-oxa-2,9-diaza-phenanthren-10-one]	25.9 nM	25.7 nM	328 nM
Cc1cccc2c(=O)[nH]c3c(c12)COC(C1CCN(C(=O)OC(C)(C)C)CC1)C3 (racemic) [Compound I-62, rac-4-(5-Methyl-9-oxo-1,4,9,10-tetrahydro-2H-3-oxa-10-aza-phenanthren-2-yl)-piperidine-1-carboxylic acid tert-butyl ester]	26.5 nM	23.7 nM	38.1 nM
Cc1cccc2c(=O)[nH]c3c(c12)COC(C(C)(C)O)C3 (racemic) [Compound I-64, rac-2-(1-Hydroxy-1-methyl-ethyl)-5-methyl-1,2,4,10-tetrahydro-3-oxa-10-aza-phenanthren-9-one]	32 nM	36.7 nM	44.1 nM

Continued, values first:

IC50 (Tankyrase 1 (TNKS1))	IC50 (tankyrase 2 (His6-TNKS2))	IC50 [1]	SMILES
33.2 nM	44.3 nM	87.1 nM	CC1(C(=O)N2CCC(C3Cc4[nH]c(=O)c5ccccc5c4CO3)CC2)CC1 (racemic) [Compound I-46, rac-2-[1-(1-Methyl-cyclopropanecarbonyl)-piperidin-4-yl]-1,2,4,10-tetrahydro-3-oxa-10-aza-phenanthren-9-one]
32.4 nM	36.8 nM	63.6 nM	O=c1[nH]c2c(c3ccccc13)COC(C1CCOCC1)C2 (racemic) [Compound I-47, rac-2-(Tetrahydro-pyran-4-yl)-1,2,4,10-tetrahydro-3-oxa-10-aza-phenanthren-9-one]
35.6 nM	44.2 nM	104 nM	O=C(C1CCOCC1)N1CCC(C2Cc3[nH]c(=O)c4ccccc4c3CO2)CC1 (racemic) [Compound I-50, rac-2-[1-(Tetrahydro-pyran-4-carbonyl)-piperidin-4-yl]-1,2,4,10-tetrahydro-3-oxa-10-aza-phenanthren-9-one]
24.1 nM	17.9 nM	79.7 nM	Cc1cccc2c(=O)[nH]c3c(c12)COC(C1CCOCC1)C3 (racemic) [Compound I-60, rac-5-Methyl-2-(tetrahydro-pyran-4-yl)-1,2,4,10-tetrahydro-3-oxa-10-aza-phenanthren-9-one]
17.5 nM	21 nM	25.9 nM	Cc1cccc2c(=O)[nH]c3c(c12)COC(C1CCN(C(=O)C2(C)CC2)CC1)C3 (racemic) [Compound I-61, rac-5-Methyl-2-[1-(1-methyl-cyclopropanecarbonyl)-piperidin-4-yl]-1,2,4,10-tetrahydro-3-oxa-10-aza-phenanthren-9-one]
28.3 nM	26.9 nM	52.6 nM	Cc1cccc2c(=O)[nH]c3c(c12)COC(C1CCN(C(=O)C2CC2)CC1)C3 (racemic) [Compound I-63, rac-2-(1-Cyclopropanecarbonyl-piperidin-4-yl)-5-methyl-1,2,4,10-tetrahydro-3-oxa-10-aza-phenanthren-9-one]
81.4 nM	101 nM	43 nM	CC1(C2Cc3[nH]c(=O)c4ccccc4c3CO2)COC1 (racemic) [Compound I-65, rac-2-(3-Methyl-oxetan-3-yl)-1,2,4,10-tetrahydro-3-oxa-10-aza-phenanthren-9-one]
31.5 nM	102 nM	37.1 nM	O=c1[nH]c2c(c3ccccc13)CO[C@H](C1CCCC1)C2 (single isomer, unassigned) [Compound I-11]
16 nM	19.4 nM	30.6 nM	O=c1[nH]c2c(c3ccccc13)CO[C@@H](C1CCCC1)C2 (single isomer, unassigned) [Compound I-12]
21.4 nM	25.7 nM	115 nM	CC(C)(C)OC(=O)N1CCC([C@@H]2Cc3[nH]c(=O)c4ccccc4c3CO2)CC1 (single isomer, unassigned) [Compound I-54]
43.2 nM	99.2 nM	125 nM	CC(C)(C)OC(=O)N1CCC([C@H]2Cc3[nH]c(=O)c4ccccc4c3CO2)CC1 (single isomer, unassigned) [Compound I-55]
421 nM	636 nM	281 nM	O=c1[nH]c2c(c3ccccc13)COCC2 [Compound I-3, 1,2,4,10-Tetrahydro-3-oxa-10-aza-phenanthren-9-one]
